The text below walks through data of US20230226062A1, “HETEROCYCLIC COMPOUNDS AS IMMUNOMODULATORS” (Incyte Corporation, priority 2016, published 2023).

In the experiment the target is T1, PD-1/PD-L1 (Homo sapiens, UniProt Q9NZQ7).
T1 construct: Recombinant human PD-L1 protein (19-238) with a His-tag at the C-terminus; purchased AcroBiosystems PD1-H5229 (PD-L1); PD1-H5257 (PD-1)
Nature of the experiment: PD-1/PD-L1 Homogeneous Time-Resolved Fluorescence (HTRF) binding assay. Conditions: recombinant human PD-L1 (19-238)-His 10 nM, human PD-1 (25-167)-Fc 3 nM, 25° C., PBS pH 7.4. The procedure: Example A. PD-1/PD-L1 Homogeneous Time-Resolved Fluorescence (HTRF) Binding Assay
The assays were conducted in a standard black 384-well polystyrene plate with a final volume of 20 μL. Inhibitors were first serially diluted in DMSO and then added to the plate wells before the addition of other reaction components. The final concentration of DMSO in the assay was 1%. The assays were carried out at 25° C. in the PBS buffer (pH 7.4) with 0.05% Tween-20 and 0.1% BSA. Recombinant human PD-L1 protein (19-238) with a His-tag at the C-terminus was purchased from AcroBiosystems (PD1-H5229). Recombinant human PD-1 protein (25-167) with Fc tag at the C-terminus was also purchased from AcroBiosystems (PD1-H5257). PD-L1 and PD-1 proteins were diluted in the assay buffer and 10 μL was added to the plate well. Plates were centrifuged and proteins were preincubated with inhibitors for 40 minutes. The incubation was followed by the addition of 10 μL of HTRF detection buffer supplemented with Europium cryptate-labeled anti-human IgG (PerkinElmer-AD0212) specific for Fc and anti-His antibody conjugated to SureLight®-Allophycocyanin (APC, PerkinElmer-AD0059H). After centrifugation, the plate was incubated at 25° C. for 60 min. before reading on a PHERAstar FS plate reader (665 nm/620 nm ratio). Final concentrations in the assay were—3 nM PD1, 10 nM PD-L1, 1 nM europium anti-human IgG and 20 nM anti-His-Allophycocyanin. IC50 determination was performed by fitting the curve of percent control activity versus the log of the inhibitor concentration using the GraphPad Prism 5.0 software.
In general terms: In TR-FRET formats the signal depends on donor and acceptor labels being close together.

T1 sequence (Q9NZQ7 19-238): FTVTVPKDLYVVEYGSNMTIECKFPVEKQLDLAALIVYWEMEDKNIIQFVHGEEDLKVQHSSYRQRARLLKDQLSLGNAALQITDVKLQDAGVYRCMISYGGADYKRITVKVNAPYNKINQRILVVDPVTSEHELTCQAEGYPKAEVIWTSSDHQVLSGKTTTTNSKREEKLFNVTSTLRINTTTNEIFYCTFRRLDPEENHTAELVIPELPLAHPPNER

In the case of `O[C@H]1CC[C@@H](NCc2ccc(N3CCCC(c4ccccc4)C3)cn2)CC1` (stereo partly drawn) [Example 22, Cis-4-((5-(3-phenylpiperidin-1-yl)pyridin-2-yl)methylamino)cyclohexanol], the concentration for half-maximal inhibition (IC50) was in the range of 100 to 1000 nM.
Regarding `Cc1c(NC(=O)N2CCCC(N)C2)cccc1-c1ccccc1` (stereo not shown) [Example 33, 3-amino-N-(2-methylbiphenyl-3-yl)piperidine-1-carboxamide], the IC50 is 1000 to 2000 nM.
Regarding `Cc1c(-c2ccccc2)cccc1N1CCC(CN)CC1` [Example 27, (1-(2-methylbiphenyl-3-yl)piperidin-4-yl)methanamine], the IC50 fell in the range of 100 to 1000 nM.
`Cc1c(Oc2ncnc3c(CNCCO)csc23)cccc1-c1ccccc1` [Example 1, 2-((4-(2-methylbiphenyl-3-yloxy)thieno[3,2-d]pyrimidin-7-yl)methylamino)ethanol]: the IC50 is 10 to 100 nM.

Broadly, the IC50 is the concentration needed to halve the response being measured.
